# Assay results published in paper PMC12216609, “Inhibitors of eIF1A-ribosome interaction unveil uORF-dependent regulation of translation initiation and antitumor and antiviral effects” (The EMBO Journal, 2025).
# “And” between values parts separate entries of the source, which are not always exact repeats. Equal entries are not always repeated. Where two headings read alike, the source gives them in different places.
# How the values were obtained:
# [1] = test system: IRF7 5'UTR firefly luciferase reporter in HEK293T cells; settings: 20 µM;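 further: luciferase signal corrected by a co-transfected GFP reporter for transfection efficiency, read after overnight compound exposure, with Long and Short reporters differing in 5'UTR length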
# [2] = target: NSP1 (Severe acute respiratory syndrome coronavirus 2, UniProt P0DTD1)
# [3] = test system: uORF-bearing 5'UTR firefly reporters in HEK293T cells; assay: uORF reinitiation / leaky scanning firefly reporters; settings: for ff/rl, 46 leaky reporter / ff/rl, 46 reporter / ff/rl, normal reporter: single replicates, not normalized to DMSO
# [4] = target: T1, eIF1A without NTT (Homo sapiens, UniProt P47813); assay: Fluorescence binding assay with NTT-truncated eIF1A; settings: for fluorescence ratio, eIF1A Δ NTT: background-corrected, relative to DMSO or lowest 1Ai concentration, replicate columns
# T1 construct: His-bdSUMO (cleaved yes); made in house; host or cells: E. coli (BL-21)
# T1 sequence (P47813 31-144 limits assumed): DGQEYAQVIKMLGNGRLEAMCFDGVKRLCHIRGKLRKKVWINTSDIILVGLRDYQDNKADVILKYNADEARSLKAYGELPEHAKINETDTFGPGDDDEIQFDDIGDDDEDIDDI
# [5] = test system: cap-proximal AUG GFP reporter in HEK293T cells; assay type: cell-based; settings: GFP WB densitometry; 20 µM overnight; dmso 0.965946;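 further: ratio of upstream to downstream AUG initiation products on GFP Western blot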
# [6] = target: T2, eIF1A without CTT (Homo sapiens, UniProt P47813); assay type: binding; settings: for fluorescence ratio, eIF1A Δ CTT: background-corrected, relative to DMSO or lowest 1Ai concentration, replicate columns
# T2 construct: His-bdSUMO (cleaved yes); made in house; host or cells: E. coli (BL-21)
# T2 sequence (P47813 1-114 limits assumed): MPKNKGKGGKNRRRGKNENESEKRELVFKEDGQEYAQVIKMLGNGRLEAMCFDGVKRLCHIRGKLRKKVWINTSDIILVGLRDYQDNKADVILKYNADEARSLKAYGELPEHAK
smiles,measurement,setting,value
O=C(COc1ccccc1[N+](=O)[O-])NCc1ccc(-c2ccc(Br)cc2)o1 [1Ai-4700],"Reference vs IRF7 (Final data, Fig. 1E)","[1]; 1/Result, relative to DMSO",2.452
same,"LONG (summary - All), normalized to DMSO","[1]; Long reporter, individual replicates, outliers excluded, DMSO = 1",0.84 and 0.38 and 0.21 and 0.60
same,"SHORT (summary - All), normalized to DMSO","[1]; Short reporter, individual replicates, outliers excluded, DMSO = 1",1.10 and 0.65 and 2.34 and 0.87
same,average ( long vs short ratio),[1]; summary - All,0.408
same,"GFP reporter ratio nsp1/gfp, avg",[2],0.4331
same,"GFP reporter ratio nsp1/gfp, rep 1",[2],0.4284
same,"GFP reporter ratio nsp1/gfp, rep 2",[2],0.4378
same,"gfp signal, mean of duplicate wells",[2],2716 and 2411 and 2645
same,"nsp1 signal, mean of duplicate wells",[2],1163.5 and 1055.5 and 1429.5
same,ratio (nsp1/gfp),[2],0.428 and 0.438 and 0.540
same,effect on uORF / leaky scanning reporters,"[3]; 20uM (1Ai-5175 at 5uM), overnight",inhibit the short-distance reinitiation
same,"normalized to DMSO, 46 leaky, average","[3]; 46 leaky reporter, average of biological repeats",0.994
same,"normalized to DMSO, 46 leaky, biological repeats","[3]; 46 leaky reporter, biological repeats 1-4",0.989 and 1.082 and 1.159 and 0.746
same,"normalized to DMSO, 46 leaky","[3]; 46 leaky reporter, single replicates 1-8 (two dates)",0.973 and 1.005 and 1.055 and 1.109 and 1.618 and 0.700 and 0.255 and 1.237
same,"normalized to DMSO, -46, average","[3]; -46 reporter, average of biological repeats",0.679
same,"normalized to DMSO, -46, biological repeats","[3]; -46 reporter, biological repeats 1-4",0.691 and 0.744 and 0.743 and 0.536
same,"normalized to DMSO, -46","[3]; -46 reporter, single replicates 1-8 (two dates)",0.671 and 0.712 and 0.669 and 0.819 and 1.007 and 0.479 and 0.251 and 0.821
same,"ff/rl, 46 leaky reporter",[3]; experiment 12.3.24,3.84E-02 and 3.96E-02 and 4.16E-02 and 4.37E-02
same,"ff/rl, 46 reporter",[3]; experiment 12.3.24,1.06E-01 (2×) and 1.12E-01 and 1.29E-01
same,"ff/rl, normal reporter",[3]; experiment 12.3.24,2.90E-01 and 2.11E-01 and 2.89E-01 and 2.67E-01
same,"ff/rl, 46 leaky reporter",[3]; experiment 13.03.24,1.47E-02 and 6.33E-03 and 2.31E-03 and 1.12E-02
same,"ff/rl, 46 reporter",[3]; experiment 13.03.24,2.46E-02 and 1.17E-02 and 6.14E-03 and 2.01E-02
same,"ff/rl, normal reporter",[3]; experiment 13.03.24,3.97E-02 and 5.12E-02 and 7.78E-02 and 1.08E-01
same,"reporter activity norm to DMSO, minus46","[3]; minus46 reporter, 95nt from uORF to main ORF experiment, Figure 4N source data, replicate experiments, DMSO = 1",0.3368 and 0.3707
same,"reporter activity norm to DMSO, minus 95","[3]; minus 95 (nt) reporter, 95nt from uORF to main ORF experiment, Figure 4N source data, replicate experiments, DMSO = 1",1.361 and 1.106
same,"reporter activity norm to DMSO, ref","[3]; ref reporter, 95nt from uORF to main ORF experiment, Figure 4N source data, replicate experiments, DMSO = 1",0.8256 and 0.6094
same,"normalized to DMSO, refference, average","[3]; refference reporter, average of biological repeats",0.908
same,"normalized to DMSO, refference","[3]; refference reporter, single replicates 1-8 (two dates)",1.031 and 0.751 and 1.028 and 0.950 and 0.503 and 0.648 and 0.985 and 1.371
same,"normalized to DMSO, single replicates","[3]; reporter 46, experiment 12.3.24",6.71E-01 and 7.12E-01 and 6.69E-01 and 8.19E-01
same,"normalize to DMSO, average","[3]; reporter 46, experiment 12.3.24, DMSO = 1",0.7177
same,"normalized to DMSO, single replicates","[3]; reporter 46, experiment 13.3.24",1.01E+00 and 4.79E-01 and 2.51E-01 and 8.21E-01
same,"normalize to DMSO, average","[3]; reporter 46, experiment 13.3.24, DMSO = 1",0.6395
same,"normalize to DMSO, average","[3]; reporter 46 leaky, experiment 12.3.24, DMSO = 1",1.036
same,"normalized to DMSO, single replicates","[3]; reporter 46 leaky, experiment 13.3.24",1.62E+00 and 7.00E-01 and 2.55E-01 and 1.24E+00
same,"normalize to DMSO, average","[3]; reporter 46 leaky, experiment 13.3.24, DMSO = 1",0.9525
same,"normalized to DMSO, single replicates","[3]; reporter normal (refference), experiment 12.3.24",1.03E+00 (2×) and 7.51E-01 and 9.50E-01
same,"normalized to DMSO, single replicates","[3]; reporter normal (refference), experiment 13.3.24",5.03E-01 and 6.48E-01 and 9.85E-01 and 1.37E+00
same,"normalize to DMSO, average","[3]; reporter refference, experiment 12.3.24, DMSO = 1",0.9399
same,"normalize to DMSO, average","[3]; reporter refference, experiment 13.3.24, DMSO = 1",0.8765
same,inhibitory effect with extended (long) reinitiation distance,[3]; uORF to main ORF distance extended by 49 nt,lost
same,binding to NTT-truncated eIF1A,[4],significantly decreased
same,"fluorescence ratio, eIF1A Δ NTT",[4]; 1Ai conc. 0.25 uM,0.8472 and 0.7714
same,"fluorescence ratio, eIF1A Δ NTT",[4]; 1Ai conc. 0.5 uM,0.8794 and 0.8467
same,"fluorescence ratio, eIF1A Δ NTT",[4]; 1Ai conc. 1 uM,0.866 and 0.8543
same,"fluorescence ratio, eIF1A Δ NTT",[4]; 1Ai conc. 2 uM,0.8713 and 0.8518
same,"fluorescence ratio, eIF1A Δ NTT",[4]; 1Ai conc. 4 uM,0.8204 and 0.8417
same,"fluorescence ratio, eIF1A Δ NTT",[4]; 1Ai conc. 8 uM,2.437 and 0.8015
same,"fluorescence ratio, eIF1A Δ NTT",[4]; 1Ai conc. 16 uM,0.7775 and 0.7663
same,"fluorescence ratio, eIF1A Δ NTT",[4]; 1Ai conc. 32 uM,0.7078 and 0.6935
same,"fluorescence ratio, eIF1A Δ NTT",[4]; 1Ai conc. 64 uM,0.6729 and 0.5628
same,"fluorescence ratio, eIF1A Δ NTT",[4]; 1Ai conc. 256 uM,0.6059 and 0.6683
same,IC50,"[4]; eIF1A Δ NTT, from the titration data, read-out: IC50 (eIF1A Δ NTT titration block)",30.2 µM
same,IC50,"[4]; summary table, fluorescence binding assay, read-out: IC50 concentration (µM), NTT truncation",45.7 µM
same,"US/DS ratio, average",[5],0.7947
same,"fluorescence ratio, eIF1A Δ CTT",[6]; 1Ai conc. 0.25 uM,1.002 and 1.029
same,"fluorescence ratio, eIF1A Δ CTT",[6]; 1Ai conc. 0.5 uM,0.8837 and 0.9156
same,"fluorescence ratio, eIF1A Δ CTT",[6]; 1Ai conc. 1 uM,0.8554 and 0.8332
same,"fluorescence ratio, eIF1A Δ CTT",[6]; 1Ai conc. 2 uM,0.9021 and 0.8902
same,"fluorescence ratio, eIF1A Δ CTT",[6]; 1Ai conc. 4 uM,0.8119 and 0.7934
same,"fluorescence ratio, eIF1A Δ CTT",[6]; 1Ai conc. 8 uM,0.6359 and 0.584
same,"fluorescence ratio, eIF1A Δ CTT",[6]; 1Ai conc. 16 uM,0.7372 and 0.671
same,"fluorescence ratio, eIF1A Δ CTT",[6]; 1Ai conc. 32 uM,0.5663 and 0.5472
same,"fluorescence ratio, eIF1A Δ CTT",[6]; 1Ai conc. 64 uM,0.381 and 0.3897
same,"fluorescence ratio, eIF1A Δ CTT",[6]; 1Ai conc. 256 uM,0.2785 and 0.26
same,IC50,"[6]; eIF1A Δ CTT, from the titration data, read-out: IC50 (eIF1A Δ CTT titration block)",30.2 µM
same,IC50,"[6]; summary table, fluorescence binding assay, read-out: IC50 concentration (µM), CTT truncation",30.2 µM
